“Also recorded” adds a separate entry of the source.
Columns and labels:
MC38 colon cancer cells = test: MC38 colon tumor growth (tumor volume) in C57BL/6 mice; assay type: in vivo
Procedure: Tumor volumes were measured and plotted. (B) MC38 colon cancer cells were injected subcutaneously into the right flank of C57BL/6 mice. After seven days when tumors became palpable, one group was treated with 5-HTR7 antagonist SB-269970 (n=6 mice; 3 mg/kg/day) or left untreated (n=6 mice). Tumor volume was measured and plotted. (C) After seven days of the setting of tumor growth, one group was treated with a serotonin transporter blocker (SSRI) sertraline hydrochloride (n=6 mice; 15 mg/kg/week) or left untreated (n=6 mice). Tumor volume was measured and plotted. (D) C57BL/6 mice were given subcutaneously injected MC38 cells. After seven days of tumor growth, one group of mice was treated with different doses of 5-HTR2B antagonist SB-215505 (n=6). Tumor volume was measured and plotted. (E) C57BL/6 mice were given subcutaneously injected MC38 cells. After seven days of the tumor growth, one group of mice was treated with different doses of 5-HTR2B antagonist SB-215505 (n=6), one group treated with 5-HTR2B agonist BW-723C86 (n=6; 4 mg/kg/day). Tumor volume was measured and plotted. (F) MC38 cells were subcutaneously injected into C57BL/6 mice. After seven days when the tumor became palpable in mice, one group of mice was treated with FDA-approved 5-HTR2B antagonist cariprazine (Carispec; Sun pharma) via oral gavage (n=5 mice; dose 5 mg/kg body weight/day) or left untreated (n=5 mice). Tumor growth was measured and plotted. […] All the statistical analysis was performed using Student's ‘t’ test or two-way ANOVA using Sidak's multiple comparison test. *P<0.05; **P<0.01; ***P<0.00; ****P<0.0001 Error bar represents mean±standard error of means (SEM).

PD-L1 [1] = test: Serum PD-L1 ELISA in MC38 tumor-bearing mice; assay type: in vivo, C57BL/6J mice; conditions: MC38 tumor-bearing mice, 5 mg/kg/day, 14 days after tumor inoculation (FIG. 13F)
Procedure: FIG. 13 depicts 5-HTR2B signaling promotes PD-L1 expression on the MC38 cell line in vitro: (A-B) MC38 cells are treated with 5-HTR2B agonist (BW-723C86-50 μM), serotonin (100 μM), and 5-HTR2B antagonist (RS-127445-50 μM) for 72 hours, and the PD-L1 expression was checked by flow cytometry and the percentage of PD-L1^+ MC38 cells was plotted. (C-D) MFI of PD-L1 from the above experiment were plotted as histogram overlay (C) or as statistical data points (D). (E) Relative PD-L1 mRNA expression in MC38 cells following BW-723C86 and RS-127445 treatment for 48 hours. Here the values are shown as a fold change as compared to control MC38 cells. […] All the statistical analysis was performed using either Student's ‘t’ test or two-way ANOVA using Sidak's multiple comparison test. *P<0.05; **P<0.01; […]; ****P<0.0001 Error bar represents mean±standard error of means (SEM).
Universal competitive serotonin ELISA kit was purchased from Novus biological (Catalog #NBP2-68127), and ELISA was performed according to the manufacturer's protocol. Mouse PD-L1 DuoSet ELISA kit was procured from the R&D System (Catalog #DY1019-05), and the ELISA was performed according to the manufacturer's guidelines.
(§1) To understand it, investigations were done on whether 5-HTR2B signaling also affects the surface expression of molecules that alters inflammatory and cytotoxic immune cells. Among different molecules, PD-L1 is of particular interest as it is an immune checkpoint ligand that affects cytotoxic T-cell responses toward cancer. […] (FIG. 13F).

PD-L1 [2] = test: PD-L1 expression on MC38 cells in vitro (flow cytometry, mRNA); assay type: cell-based, mouse; conditions: BW-723C86 50 μM, serotonin 100 μM, RS-127445 50 μM, 72 hours (mRNA 48 hours) (FIG. 13A-E)
Procedure: FIG. 13 depicts 5-HTR2B signaling promotes PD-L1 expression on the MC38 cell line in vitro: (A-B) MC38 cells are treated with 5-HTR2B agonist (BW-723C86-50 μM), serotonin (100 μM), and 5-HTR2B antagonist (RS-127445-50 μM) for 72 hours, and the PD-L1 expression was checked by flow cytometry and the percentage of PD-L1^+ MC38 cells was plotted. (C-D) MFI of PD-L1 from the above experiment were plotted as histogram overlay (C) or as statistical data points (D). (E) Relative PD-L1 mRNA expression in MC38 cells following BW-723C86 and RS-127445 treatment for 48 hours. Here the values are shown as a fold change as compared to control MC38 cells. (F) Serum PD-L1 level was measured by ELISA of naïve C57BL/6J mice, control MC38 tumor-bearing mice, BW-723C86 (5 mg/kg/day) treated MC38 tumor-bearing mice and RS-127445 (5 mg/kg/day) treated MC38 tumor-bearing mice after 14 days of tumor inoculation. All the statistical analysis was performed using either Student's ‘t’ test or two-way ANOVA using Sidak's multiple comparison test. *P<0.05; **P<0.01; […]; ****P<0.0001 Error bar represents mean±standard error of means (SEM).
as §1

| SMILES | MC38 tumor growth (MC38 colon cancer cells; 5-HTR2B agonist 4 mg/kg/day (FIG. 7E)) | circulating free PD-L1 in the serum (PD-L1 [1]) | expression of PD-L1 in the colon cancer cells (PD-L1 [2]) | MC38 tumor growth (MC38 colon cancer cells; 4 mg/kg/day from day 7 after inoculation, vs untreated (FIG. 7A)) | effect in controlling tumor growth compared to SB-215505 (MC38 colon cancer cells; MC38 tumor, equivalent dose) | tumor growth, combination with 5-Fluorouracil (MC38 colon cancer cells; RS-127445 2 mg/kg/day + 5-Fluorouracil 10 mg/kg/alternate days, MC38 model (FIG. 16B)) | efficacy of combination with Irinotecan (MC38 colon cancer cells; RS-127445 2 mg/kg/day + Irinotecan 15 mg/kg/day for 5 days, subcutaneous colon cancer model (FIG. 16D)) | efficacy of combination with Oxaliplatin (MC38 colon cancer cells; RS-127445 2 mg/kg/day + Oxaliplatin 4 mg/kg/day for 5 days, subcutaneous colon cancer model (FIG. 16C)) | efficacy of combination with trifluorothymidine (MC38 colon cancer cells; RS-127445 2 mg/kg/day + trifluorothymidine 20 mg/kg/day (FIG. 16E)) |
| --- | --- | --- | --- | --- | --- | --- | --- | --- | --- |
| CC(N)Cc1c[nH]c2ccc(OCc3cccs3)cc12 (centres unmarked) [BW-723C86] | significantly promotes MC38 tumor growth | increased the circulating free PD-L1 in the serum | increased the expression of PD-L1 |  |  |  |  |  |  |
| CC(C)c1cc(-c2ccc(F)c3ccccc23)nc(N)n1 [RS-127445] |  | diminished | reduced the expression of PD-L1 | efficiently control the tumor growth; also recorded: potent molecule in reducing the tumor burden | even more potent effect in controlling tumor growth | much better response by reducing tumor growth than any of them alone | significantly enhanced the efficacy of irinotecan or RS-127445 alone | significantly enhanced the efficacy of oxaliplatin or RS-127445 alone | not found any significant alterations in the efficacy |
